Columns and labels:
[1] = biological target: T1, human seritonin transporter (Homo sapiens, UniProt P31645); test: hSERT receptor binding ([125I]-RTI-55 radioligand binding); settings: membranes of HEK-293 cells transfected with human seritonin transporter, IC50 converted to Ki by Cheng-Prusoff, read-out: SERT (Ki)
T1 construct: host or cells: HEK-293

[2] = biological target: T2, human norepinephrine transporter (Homo sapiens, UniProt P23975); test: hNET receptor binding ([125I]-RTI-55 radioligand binding); settings: membranes of HEK-293 cells transfected with human norepinephrine transporter, IC50 converted to Ki by Cheng-Prusoff, read-out: hNET (Ki)
T2 construct: host or cells: HEK-293
Outline: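 Membranes from HEK-293 cells transfected with human NET. Nonspecific binding defined with 10 μM desipramine, duplicates. IC50 by nonlinear regression, converted to Ki with Cheng-Prusoff.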

T2 sequence (P23975 whole entry): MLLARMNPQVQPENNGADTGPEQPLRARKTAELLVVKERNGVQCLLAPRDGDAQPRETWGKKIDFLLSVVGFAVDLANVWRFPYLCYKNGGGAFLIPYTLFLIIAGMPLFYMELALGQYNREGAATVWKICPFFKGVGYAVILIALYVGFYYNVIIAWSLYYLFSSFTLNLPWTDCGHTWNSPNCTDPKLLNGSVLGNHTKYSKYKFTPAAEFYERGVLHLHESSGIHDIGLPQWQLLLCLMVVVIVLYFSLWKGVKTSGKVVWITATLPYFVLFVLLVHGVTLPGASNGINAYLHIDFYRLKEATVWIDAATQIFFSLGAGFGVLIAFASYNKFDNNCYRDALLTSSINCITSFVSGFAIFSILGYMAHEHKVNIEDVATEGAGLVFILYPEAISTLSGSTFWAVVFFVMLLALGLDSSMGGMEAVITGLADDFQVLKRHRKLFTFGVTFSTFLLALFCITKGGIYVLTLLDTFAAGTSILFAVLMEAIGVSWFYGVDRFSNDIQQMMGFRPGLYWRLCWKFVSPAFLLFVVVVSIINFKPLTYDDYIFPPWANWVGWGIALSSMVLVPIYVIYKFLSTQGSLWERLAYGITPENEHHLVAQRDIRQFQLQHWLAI
T1 sequence (P31645 whole entry): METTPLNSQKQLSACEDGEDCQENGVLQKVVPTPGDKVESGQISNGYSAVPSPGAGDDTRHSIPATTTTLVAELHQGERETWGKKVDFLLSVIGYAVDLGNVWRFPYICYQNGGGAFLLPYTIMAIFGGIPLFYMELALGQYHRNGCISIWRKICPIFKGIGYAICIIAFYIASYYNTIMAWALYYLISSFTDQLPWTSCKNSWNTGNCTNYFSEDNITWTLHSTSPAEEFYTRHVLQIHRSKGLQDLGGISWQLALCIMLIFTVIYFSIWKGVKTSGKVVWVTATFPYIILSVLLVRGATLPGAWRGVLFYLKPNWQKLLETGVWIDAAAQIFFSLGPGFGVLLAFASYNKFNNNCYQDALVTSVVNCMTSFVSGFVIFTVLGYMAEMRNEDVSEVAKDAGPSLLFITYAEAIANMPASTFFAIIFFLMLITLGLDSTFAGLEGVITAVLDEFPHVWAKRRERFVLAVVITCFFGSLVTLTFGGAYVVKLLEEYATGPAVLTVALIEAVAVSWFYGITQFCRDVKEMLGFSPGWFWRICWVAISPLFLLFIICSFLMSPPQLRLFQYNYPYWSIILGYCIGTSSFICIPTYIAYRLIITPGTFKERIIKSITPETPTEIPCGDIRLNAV

| SMILES | Ki [1] [nM] | Ki [2] [nM] |
| --- | --- | --- |
| c1ccc(-c2ccccc2O[C@@H](c2ccccn2)[C@@H]2CNCCO2)cc1 [Example 153, (2S)-2-[(S)-(biphenyl-2-yloxy)(pyridin-2-yl)methyl]morpholine] | 6320 | 14 |
| c1ccc([C@H](Oc2ccccc2C2CC2)[C@@H]2CNCCO2)nc1 [Example 154, (2S)-2-[(S)-(2-cyclopropylphenoxy)(pyridin-2-yl)methyl]morpholine] | 2520 | 12 |
| Brc1ccccc1O[C@@H](c1ccccn1)[C@@H]1CNCCO1 [Example 155, (2S)-2-[(S)-(2-bromophenoxy)(pyridin-2-yl)methyl]morpholine] | 768 | 5 |
| FCc1ccccc1OC(c1ccccc1)[C@@H]1CNCCO1 (stereo partly drawn) [Example 156, (2S)-2-[[2-(fluoromethyl)phenoxy](phenyl)methyl]morpholine] | 801 | 14 |
| CCOc1cccc(F)c1OC(c1ccccc1)[C@@H]1CNCCO1 (stereo partly drawn) [Example 157, (2S)-2-[(2-ethoxy-6-fluorophenoxy)(phenyl)methyl]morpholine] | 2570 | 4 |
| COc1cccc(F)c1O[C@@H](c1ccccn1)[C@@H]1CNCCO1 [Example 158, (2S)-2-[(S)-(2-fluoro-6-methoxyphenoxy)(pyridin-2-yl)methyl]morpholine] | ≥ 10000 | 6 |
| CCOc1cccc(F)c1O[C@@H](c1ccccn1)[C@@H]1CNCCO1 [Example 159, (2S)-2-[(S)-(2-ethoxy-6-fluorophenoxy)(pyridin-2-yl)methyl]morpholine] | 7370 | 7 |
| Fc1cccc(F)c1O[C@@H](c1ccccn1)[C@@H]1CNCCO1 [Example 160, (2S)-2-[(S)-(2,6-difluorophenoxy)(pyridin-2-yl)methyl]morpholine] | 6500 | 6 |
| FCCCOc1ccccc1O[C@@H](c1ccccc1)[C@@H]1CNCCO1 [Example 161, (2S)-2-[(S)-[2-(3-fluoropropoxy)phenoxy](phenyl)methyl]morpholine] | 3880 | 5 |
| CCOc1ncccc1O[C@@H](CC1CCCCC1)[C@@H]1CNCCO1 [Example 162, (2S)-2-{(1S)-2-cyclohexyl-1-[(2-ethoxypyridin-3-yl)oxy]ethyl}morpholine] | 263 | 5 |
| Fc1cccc(F)c1OC(c1cccc2c1OCC2)[C@@H]1CNCCO1 (stereo partly drawn) [Example 163, (2S)-2-[(2,6-difluorophenoxy)(2,3-dihydro-1-benzofuran-7-yl)methyl]morpholine] | 446 | 13 |
| Fc1ccc(C2CC2)c(O[C@@H](c2ccccn2)[C@@H]2CNCCO2)c1 [Example 164, (2S)-2-[(S)-(2-cyclopropyl-5-fluorophenoxy)(pyridin-2-yl)methyl]morpholine] | 3070 | 13 |
| CC(C)Oc1cccc(F)c1O[C@@H](c1ccccc1)[C@@H]1CNCCO1 [Example 165, (2S)-2-[(S)-(2-fluoro-6-isopropoxyphenoxy)(phenyl)methyl]morpholine] | 351 | 4 |
| COc1ncccc1O[C@@H](c1ccccc1)[C@@H]1CNCCO1 [Example 166, (2S)-2-[(S)-[(2-methoxypyridin-3-yl)oxy](phenyl)methyl]morpholine] | 1350 | 8 |
| COc1ccc(F)cc1OC(c1ccccc1)[C@@H]1CNCCO1 (stereo partly drawn) [Example 167, (2S)-2-[(5-fluoro-2-methoxyphenoxy)(phenyl)methyl]morpholine] | 2550 | 8 |
| COc1c(F)cccc1OC(c1ccccc1)[C@@H]1CNCCO1 (stereo partly drawn) [Example 168, (2S)-2-[(3-fluoro-2-methoxyphenoxy)(phenyl)methyl]morpholine] | 791 | 5 |
| CCOc1ccc(F)cc1OC(c1ccccc1)[C@@H]1CNCCO1 (stereo partly drawn) [Example 169, (2S)-2-[(2-ethoxy-5-fluorophenoxy)(phenyl)methyl]morpholine] | 2980 | 6 |
| CCOc1c(F)cccc1OC(c1ccccc1)[C@@H]1CNCCO1 (stereo partly drawn) [Example 170, (2S)-2-[(2-ethoxy-3-fluorophenoxy)(phenyl)methyl]morpholine] | 4930 | 11 |
| CCCOc1cccc(F)c1O[C@@H](c1ccccc1)[C@@H]1CNCCO1 [Example 171, (2S)-2-[(S)-(2-fluoro-6-propoxyphenoxy)(phenyl)methyl]morpholine] | 1040 | 20 |

Second part, the compound after the results:

| Ki [1] [nM] | Ki [2] [nM] | SMILES |
| --- | --- | --- |
| ≥ 10000 | 12 | Cc1coc(C(Oc2c(F)cccc2F)[C@@H]2CNCCO2)n1 (stereo partly drawn) [Example 173, (2S)-2-[(2,6-difluorophenoxy)(4-methyl-1,3-oxazol-2-yl)methyl]morpholine] |
| 7520 | 18 | Cc1coc(C(Oc2ccccc2OC(F)(F)F)[C@@H]2CNCCO2)n1 (stereo partly drawn) [Example 174, (2S)-2-{(4-methyl-1,3-oxazol-2-yl)[2-(trifluoromethoxy)phenoxy]methyl}morpholine] |
| 7640 | 15 | Fc1cccc(F)c1OC(c1nccs1)[C@@H]1CNCCO1 (stereo partly drawn) [Example 175, (2S)-2-[(2,6-difluorophenoxy)(1,3-thiazol-2-yl)methyl]morpholine] |
| 3420 | 5 | CCCC[C@H](Oc1cccnc1OCC)[C@@H]1CNCCO1 [Example 176, (2S)-2-{(1S)-1-[(2-ethoxypyridin-3-yl)oxy]pentyl}morpholine] |
| 1960 | 7 | Cc1coc(C(Oc2ccccc2Br)[C@@H]2CNCCO2)n1 (stereo partly drawn) [Example 177, (2S)-2-[(2-bromophenoxy)(4-methyl-1,3-oxazol-2-yl)methyl]morpholine] |
| 61 | 3 | Cc1cccc(F)c1O[C@@H](c1ccccc1)[C@@H]1CNCCO1 [Example 178, (2S)-2-[(S)-(2-fluoro-6-methylphenoxy)(phenyl)methyl]morpholine] |
| 2550 | 18 | CC(C)c1ncccc1O[C@@H](c1ccccc1)[C@@H]1CNCCO1 [Example 179, (2S)-2-[(S)-[(2-isopropylpyridin-3-yl)oxy](phenyl)methyl]morpholine] |
| 8230 | 9 | CCOc1ccccc1OC(c1nccs1)[C@@H]1CNCCO1 (stereo partly drawn) [Example 180, (2S)-2-[(2-ethoxyphenoxy)(1,3-thiazol-2-yl)methyl]morpholine] |
| 4900 | 225 | CCOc1ccccc1O[C@H](c1ccccn1)[C@H]1CNCCO1 [Example 181, (2R)-2-[(R)-(2-ethoxyphenoxy)(pyridin-2-yl)methyl]morpholine] |
| 7080 | 31 | CC(C)Cc1ncccc1O[C@@H](c1ccccc1)[C@@H]1CNCCO1 [Example 182, (2S)-2-[(S)-[(2-isobutylpyridin-3-yl)oxy](phenyl)methyl]morpholine] |
| 5340 | 7 | CC(C)c1cccc(F)c1O[C@@H](c1ccccc1)[C@@H]1CNCCO1 [Example 183, (2S)-2-[(S)-(2-fluoro-6-isopropylphenoxy)(phenyl)methyl]morpholine] |
| 201 | 8 | COc1cccc([C@H](Oc2c(F)cccc2Br)[C@@H]2CNCCO2)n1 [Example 185, (2S)-2-[(S)-(2-bromo-6-fluorophenoxy)(6-methoxypyridin-2-yl)methyl]morpholine] |

Source: US7659394B2 (Pfizer Inc, priority 2004, dated 2010)
